{
  "source": "paper doi:10.1101/2023.12.04.569845",
  "about": "“Identification of 4-(6-((2-methoxyphenyl)amino)pyrazin-2-yl)benzoic acids as CSNK2A inhibitors with antiviral activity and improved selectivity over PIM3” (bioRxiv, 2023)",
  "test_in_all_cases": "biochemical",
  "design_in_all_cases": "Thermal shift (DSF, SYPRO Orange) Tm shift of recombinant kinase domains at 10 uM compound",
  "key": {"[1]": {"molecular_target": "T1, p38d (Homo sapiens, UniProt O15264)", "T1 construct": "gene MAPK13", "T1 sequence (O15264 1-365)": "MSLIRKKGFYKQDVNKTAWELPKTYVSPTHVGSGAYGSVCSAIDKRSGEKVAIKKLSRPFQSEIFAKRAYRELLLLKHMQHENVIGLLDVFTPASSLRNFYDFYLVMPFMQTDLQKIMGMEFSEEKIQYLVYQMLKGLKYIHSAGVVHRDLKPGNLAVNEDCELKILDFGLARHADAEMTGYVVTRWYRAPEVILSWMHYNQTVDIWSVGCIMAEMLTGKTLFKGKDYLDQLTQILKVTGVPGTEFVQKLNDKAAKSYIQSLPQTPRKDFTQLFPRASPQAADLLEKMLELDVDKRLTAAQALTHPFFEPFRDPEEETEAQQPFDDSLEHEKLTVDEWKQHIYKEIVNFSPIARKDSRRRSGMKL", "experimental": "(§1) S23 Thermal stability kinase selectivity. The assay was performed as previously described. 9,10 Briefly, recombinant protein kinase domains at a concentration of 2 μM were mixed with 10 μM compound in a buffer containing 20 mM HEPES, pH 7.5, and 500 mM NaCl. SYPRO Orange (5000×, Invitrogen) was added as a fluorescence probe (1 µl per mL). Subsequently, temperature-dependent protein unfolding profiles were measured using the QuantStudio™ 5 realtime PCR machine (Thermo Fisher). […] The temperature was raised with a step rate of 3°C per minute. Data points were analysed with the internal software (Thermal Shift SoftwareTM Version 1.4, Thermo Fisher) using the Boltzmann equation to determine the inflection point of the transition curve."}, "[2]": {"molecular_target": "T2, VRK1 (Homo sapiens, UniProt Q99986)", "T2 sequence (Q99986 1-396)": "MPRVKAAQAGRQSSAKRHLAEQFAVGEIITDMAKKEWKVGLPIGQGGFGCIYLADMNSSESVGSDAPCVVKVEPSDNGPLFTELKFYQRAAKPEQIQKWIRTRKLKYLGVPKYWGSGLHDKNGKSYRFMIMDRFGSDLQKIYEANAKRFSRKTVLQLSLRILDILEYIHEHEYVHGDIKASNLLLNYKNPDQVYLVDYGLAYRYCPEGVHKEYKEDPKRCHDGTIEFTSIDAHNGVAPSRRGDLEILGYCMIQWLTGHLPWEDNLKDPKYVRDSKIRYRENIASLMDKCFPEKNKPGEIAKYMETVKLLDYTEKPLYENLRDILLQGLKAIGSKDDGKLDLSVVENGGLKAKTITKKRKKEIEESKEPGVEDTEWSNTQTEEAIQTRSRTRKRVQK", "experimental": "as §1"}, "[3]": {"molecular_target": "T3, CK1d (Homo sapiens, UniProt P48730)", "T3 construct": "gene CSNK1D", "T3 sequence (P48730 whole entry)": "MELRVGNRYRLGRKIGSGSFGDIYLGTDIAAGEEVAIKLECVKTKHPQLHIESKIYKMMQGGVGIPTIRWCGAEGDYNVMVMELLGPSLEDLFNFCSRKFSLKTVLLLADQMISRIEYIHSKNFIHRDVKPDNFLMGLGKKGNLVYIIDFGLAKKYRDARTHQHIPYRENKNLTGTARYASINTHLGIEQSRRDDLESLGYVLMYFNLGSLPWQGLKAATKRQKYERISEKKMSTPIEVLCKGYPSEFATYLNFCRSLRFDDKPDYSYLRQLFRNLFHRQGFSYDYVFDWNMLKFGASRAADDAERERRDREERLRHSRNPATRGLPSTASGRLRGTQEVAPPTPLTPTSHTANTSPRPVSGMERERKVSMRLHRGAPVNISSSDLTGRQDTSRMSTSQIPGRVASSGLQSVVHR", "experimental": "as §1"}, "[4]": {"molecular_target": "CAMK1G (Homo sapiens, UniProt Q96NX5)", "sequence (Q96NX5 whole entry)": "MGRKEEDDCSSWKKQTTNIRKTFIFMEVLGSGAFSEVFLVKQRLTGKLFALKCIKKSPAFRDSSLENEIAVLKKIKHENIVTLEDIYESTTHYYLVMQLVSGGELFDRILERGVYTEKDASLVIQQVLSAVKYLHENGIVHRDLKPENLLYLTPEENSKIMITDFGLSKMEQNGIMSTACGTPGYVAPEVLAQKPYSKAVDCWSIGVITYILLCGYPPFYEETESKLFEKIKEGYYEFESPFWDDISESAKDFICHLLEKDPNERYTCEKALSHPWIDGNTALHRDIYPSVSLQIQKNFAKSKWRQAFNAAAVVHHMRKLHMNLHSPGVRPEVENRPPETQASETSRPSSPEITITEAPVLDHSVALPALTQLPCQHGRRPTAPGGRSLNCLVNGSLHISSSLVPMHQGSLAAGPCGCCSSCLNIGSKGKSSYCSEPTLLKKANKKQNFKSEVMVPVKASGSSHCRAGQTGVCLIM", "experimental": "as §1"}, "[5]": {"molecular_target": "T4, MAP2K6 (Homo sapiens, UniProt P52564)", "T4 sequence (P52564 1-334)": "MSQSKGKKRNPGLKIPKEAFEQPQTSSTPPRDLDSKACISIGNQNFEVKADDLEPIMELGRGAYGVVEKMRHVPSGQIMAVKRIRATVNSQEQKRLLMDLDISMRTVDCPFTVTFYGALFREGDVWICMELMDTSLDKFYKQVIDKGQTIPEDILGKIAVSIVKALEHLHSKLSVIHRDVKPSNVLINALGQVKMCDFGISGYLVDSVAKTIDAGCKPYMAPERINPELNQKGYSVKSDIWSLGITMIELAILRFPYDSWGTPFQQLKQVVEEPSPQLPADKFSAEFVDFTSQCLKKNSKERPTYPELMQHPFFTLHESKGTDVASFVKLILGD", "experimental": "as §1"}, "[6]": {"molecular_target": "T5, Erk2 (Homo sapiens, UniProt P28482)", "T5 construct": "gene MAPK1", "T5 sequence (P28482 whole entry)": "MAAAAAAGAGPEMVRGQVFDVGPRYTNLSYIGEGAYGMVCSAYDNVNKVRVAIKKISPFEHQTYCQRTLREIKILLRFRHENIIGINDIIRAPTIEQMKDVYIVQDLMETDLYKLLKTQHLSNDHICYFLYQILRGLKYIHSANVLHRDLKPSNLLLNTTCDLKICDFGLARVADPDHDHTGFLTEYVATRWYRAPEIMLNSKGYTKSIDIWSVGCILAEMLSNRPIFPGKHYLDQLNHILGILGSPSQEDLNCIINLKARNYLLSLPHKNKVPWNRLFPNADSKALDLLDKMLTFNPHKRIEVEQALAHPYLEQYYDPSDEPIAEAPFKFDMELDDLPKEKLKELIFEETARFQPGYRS", "experimental": "as §1"}, "[7]": {"molecular_target": "T6, DCAMKL1 (Homo sapiens, UniProt O15075)", "T6 construct": "gene DCLK1", "T6 sequence (O15075 1-740)": "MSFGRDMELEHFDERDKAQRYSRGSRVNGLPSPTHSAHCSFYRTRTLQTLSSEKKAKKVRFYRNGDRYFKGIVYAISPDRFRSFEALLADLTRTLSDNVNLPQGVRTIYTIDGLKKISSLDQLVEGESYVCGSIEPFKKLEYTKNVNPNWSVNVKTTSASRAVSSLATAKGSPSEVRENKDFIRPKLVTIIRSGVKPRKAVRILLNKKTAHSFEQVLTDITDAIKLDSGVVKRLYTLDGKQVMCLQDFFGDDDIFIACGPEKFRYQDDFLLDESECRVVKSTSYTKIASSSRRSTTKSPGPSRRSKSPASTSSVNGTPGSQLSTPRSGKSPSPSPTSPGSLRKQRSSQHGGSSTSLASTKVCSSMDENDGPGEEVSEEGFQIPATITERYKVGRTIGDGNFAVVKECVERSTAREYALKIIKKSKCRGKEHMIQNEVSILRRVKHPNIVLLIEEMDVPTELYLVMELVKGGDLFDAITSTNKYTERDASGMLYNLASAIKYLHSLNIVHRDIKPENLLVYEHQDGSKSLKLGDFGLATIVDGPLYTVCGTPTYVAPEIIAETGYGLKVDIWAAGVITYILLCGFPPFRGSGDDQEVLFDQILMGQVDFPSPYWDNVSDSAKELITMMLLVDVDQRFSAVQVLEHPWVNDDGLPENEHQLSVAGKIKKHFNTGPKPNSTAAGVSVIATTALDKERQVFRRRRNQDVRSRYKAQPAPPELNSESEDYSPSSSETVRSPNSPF", "experimental": "as §1"}},
  "note": "Read-outs that look alike come from different tables or passages of the source.",
  "data": [
    {"smiles": "COc1ccc(OC(C)C)cc1Nc1cncc(-c2ccc(C(=O)O)cc2)n1", "note": "[7c]", "values": [
      {"measurement": "ΔTm at 10 µM", "setting": "[1]; read-out: 7c", "result": 0, "unit": "°C"},
      {"measurement": "ΔTm at 10 µM", "setting": "[2]; read-out: 7c", "result": 0, "unit": "°C"},
      {"measurement": "ΔTm at 10 µM", "setting": "[3]; read-out: 7c", "result": 2, "unit": "°C"},
      {"measurement": "ΔTm at 10 µM", "setting": "[4]; read-out: 7c", "result": -1, "unit": "°C"},
      {"measurement": "ΔTm at 10 µM", "setting": "[5]; read-out: 7c", "result": 0, "unit": "°C"},
      {"measurement": "ΔTm at 10 µM", "setting": "[6]; read-out: 7c", "result": 0, "unit": "°C"},
      {"measurement": "ΔTm at 10 µM", "setting": "[7]; read-out: 7c", "result": 3, "unit": "°C"}
    ]},
    {"smiles": "CC(C)Nc1ccc2cnn(-c3cncc(-c4ccc(C(=O)O)cc4)n3)c2c1", "note": "[compound 2, 2]", "values": [
      {"measurement": "ΔTm at 10 µM", "setting": "[1]; read-out: 2", "result": 0, "unit": "°C"},
      {"measurement": "ΔTm at 10 µM", "setting": "[2]; read-out: 2", "result": 1, "unit": "°C"},
      {"measurement": "ΔTm at 10 µM", "setting": "[3]; read-out: 2", "result": 3, "unit": "°C"},
      {"measurement": "ΔTm at 10 µM", "setting": "[4]; read-out: 2", "result": 2, "unit": "°C"},
      {"measurement": "ΔTm at 10 µM", "setting": "[5]; read-out: 2", "result": 2, "unit": "°C"},
      {"measurement": "ΔTm at 10 µM", "setting": "[6]; read-out: 2", "result": 0, "unit": "°C"},
      {"measurement": "ΔTm at 10 µM", "setting": "[7]; read-out: 2", "result": 4, "unit": "°C"}
    ]},
    {"smiles": "CC(C)Oc1ccc2ccn(-c3cncc(-c4ccc(C(=O)O)cc4)n3)c2c1", "note": "[6c]", "values": [
      {"measurement": "ΔTm at 10 µM", "setting": "[1]; read-out: 6c", "result": 1, "unit": "°C"},
      {"measurement": "ΔTm at 10 µM", "setting": "[2]; read-out: 6c", "result": 0, "unit": "°C"},
      {"measurement": "ΔTm at 10 µM", "setting": "[3]; read-out: 6c", "result": 3, "unit": "°C"},
      {"measurement": "ΔTm at 10 µM", "setting": "[4]; read-out: 6c", "result": 0, "unit": "°C"},
      {"measurement": "ΔTm at 10 µM", "setting": "[5]; read-out: 6c", "result": 3, "unit": "°C"},
      {"measurement": "ΔTm at 10 µM", "setting": "[6]; read-out: 6c", "result": 0, "unit": "°C"},
      {"measurement": "ΔTm at 10 µM", "setting": "[7]; read-out: 6c", "result": 3, "unit": "°C"}
    ]}
  ]
}
